Key:
[1] = tested on: mouse model of chronic immobilization stress; test: object recognition test (ORT); format: in vivo; conditions: D-Tyr-containing diet (181 mg D-Tyr/kg AIN-93G), chronic stress 14 days
Protocol: Twenty-eight C57BL/6 male mice (7-week old) were divided into two groups, each group provided for 1 week with a normal diet or D-tyrosine (D-Tyr)-containing diet (181 mg D-Tyr/kg AIN-93G).
Once the animals become 8-week old, they were applied with chronic immobilization stress (CIS) under light condition of 200 lux, 2 hours per day for 2 weeks. The animals were divided into the control group (CTL), D-Tyr diet control group (CTL+D-Tyr), chronic stress group (STR), and D-Tyr diet chronic stress group (STR+D-Tyr), in which each group consists of 7 animals.
Upon the completion of the CIS for 2 weeks, a cognitive function test was carried out. To compare the cognitive function between the group provided with D-Tyr-containing diet over the entire test period including habituation period and normal feed diet group, an object recognition test (ORT) and an object location recognition test (OLT) for testing long-term memory skills were carried out.
ORT: The test consists of three stages, i.e., habituation, familiarization, and test. The animals were habituated in a test box, 10 minutes per day for 2 days. At the familiarization stage on Day 3, they were allowed to explore two identical objects for 10 minutes. […] The object recognition function index (i.e., discrimination index: DI) was calculated based on the following formula (3). […]

[2] = tested on: chronic immobilization stress group (STR); test: ammonia amount in PFC (Ammonia assay kit); format: in vivo, mouse; conditions: stress group fed tyrosine-diet
Protocol: PFC tissues were weighed at a temperature of not more than −20° C. to prevent them from melting. To a 1.5 ml tube, RIPA (proteinase inhibitor cocktail, containing PIC) in an amount of 100 μl per 10 mg of the tissues and suitable number of glass beads were added, and then the tissues were lysed twice for 30 seconds by using a bullet blender. Lysed tissues were spun down, transferred to a fresh 1.5 ml tube, and then subjected to tissue homogenization for 1 min by ultrasonication. After centrifuged for 15 minutes at 12,000 rpm, supernatant was transferred to a fresh 1.5 ml tube and kept at −80° C. until use. […]
To 100 μl of the ammonia assay reagent provided in the Ammonia assay kit, 10 μl of the sample diluted by a factor 2 using PBS buffer solution (i.e., corresponding to 5 μg tissues) were added and incubated for 5 minutes at room temperature. […] After 5 minutes, absorbance was measured at 340 nm by using a microreader (Ainitial).
After adding 10 μl of glutamate dehydrogenase solution and incubation for 5 minutes at room temperature, absorbance was measured at 340 nm by using a microreader (Afinal).
DA340 nm (Afinal-Ainitial) was then calculated, and DA340 nm of the blank control or DA340 nm of buffer solution blank control was excluded by subtraction for the reference and sample, respectively. […]

NQO-1 = NQO-1 gene expression in kidney (quantitative real-time PCR), renal ischemia and reperfusion; format: in vivo, mouse; conditions: L-tyrosine 100 mg/kg oral once a day for 4 days, 24 hours after ischemia and reperfusion, vs prepared solvent
Protocol: C57BL/6 male mouse (23 to 25 g, KOATECH, South Korea) was allowed to have free access to diets and water in sterile breeding room with constant temperature and humidity. The animals were divided into 3 test groups, i.e., 1) Control group (Sham), 2) Renal ischemia having treatment with prepared solvent and induced reperfusion group (CMC+IR), and 3) Renal ischemia having treatment with L-tyrosine and induced reperfusion group (L-Tyr+IR).
L-Tyrosine (100 mg/kg) was suspended in 0.5% CMC (carboxymethyl cellulose). The animal was orally administered, once a day for 4 days, with L-tyrosine or the prepared solvent CMC. Thirty minutes after the oral administration on Day 4, renal ischemia was caused. Specifically, the animal abdomen was cut and renal pedicles at both sides were clamped using a Muller atraumatic vascular clamp to cause renal ischemia. After 25 minutes of blood ischemia, the clamp was removed followed by reperfusion. The control group (Sham) received the same operational procedures as above except the ischemia using clamp. […]
According to Trizol method, total RNA was extracted from kidney tissues, and cDNA was synthesized by using Revert Aid Reverse Transcription System (ThermoFisher). Quantitative PCR was carried out with CFX Connect Real-Time PCR system (Bio-Rad) by using iQ SYBR Green Super mix (Bio-Rad). […]

[3] = tested on: high-fat diet mouse model of type 2 diabetes; test: insulin resistance test; format: in vivo; conditions: HFD+L-Tyr vs HFD; 6 hours fasting, insulin 0.75 U/kg i.p., 15-90 minutes
Protocol: Twenty-seven C57BL/6 male mice (3-week old) were acclimated to the breeding condition for 1 week. […] Blood glucose was measured every week.
Insulin was diluted with physiological saline to prepare 0.15 U/ml solution. Blood glucose of a mouse, which has been subjected to fasting for 6 hours, was measured, and the animal was intraperitoneally injected with insulin (0.75 U/bodyweight (kg)). After the intraperitoneal injection of insulin, blood glucose was measured at time points of 15, 30, 60, and 90 minutes. Insulin injection amount(μl)=Bodyweight(g)×5 Formula (2)

Structure (SMILES)	ORT (object recognition function index, DI) [1]	ammonia amount in PFC [2]	expression of NQO-1 gene in kidney (NQO-1)	blood glucose amount, insulin resistance test [3]
N[C@@H](Cc1ccc(O)cc1)C(=O)O [tyrosine]	no statistically significant difference	reduced to a similar level to the normal group	–	–
N[C@@H](Cc1ccc(O)cc1)C(=O)O [L-tyrosine]	–	–	statistically significant increase in the expression of NQO-1 gene	statistically significant decrease in blood glucose amount
